Paper PMC9037111, “Structure-based design, synthesis, and biological evaluation of novel piperine–resveratrol hybrids as antiproliferative agents targeting SIRT-2” (RSC Advances, 2021)
Where two headings read alike, the source gives them in different places.

Columns and labels:
Assay in all cases: sirtuin deacetylase inhibition assay, % inhibition at […] ([…] at […])
Assay type in all cases: biochemical
[1] = target: T1, SIRT1 (Homo sapiens, UniProt Q96EB6)
T1 sequence (Q96EB6 2-747): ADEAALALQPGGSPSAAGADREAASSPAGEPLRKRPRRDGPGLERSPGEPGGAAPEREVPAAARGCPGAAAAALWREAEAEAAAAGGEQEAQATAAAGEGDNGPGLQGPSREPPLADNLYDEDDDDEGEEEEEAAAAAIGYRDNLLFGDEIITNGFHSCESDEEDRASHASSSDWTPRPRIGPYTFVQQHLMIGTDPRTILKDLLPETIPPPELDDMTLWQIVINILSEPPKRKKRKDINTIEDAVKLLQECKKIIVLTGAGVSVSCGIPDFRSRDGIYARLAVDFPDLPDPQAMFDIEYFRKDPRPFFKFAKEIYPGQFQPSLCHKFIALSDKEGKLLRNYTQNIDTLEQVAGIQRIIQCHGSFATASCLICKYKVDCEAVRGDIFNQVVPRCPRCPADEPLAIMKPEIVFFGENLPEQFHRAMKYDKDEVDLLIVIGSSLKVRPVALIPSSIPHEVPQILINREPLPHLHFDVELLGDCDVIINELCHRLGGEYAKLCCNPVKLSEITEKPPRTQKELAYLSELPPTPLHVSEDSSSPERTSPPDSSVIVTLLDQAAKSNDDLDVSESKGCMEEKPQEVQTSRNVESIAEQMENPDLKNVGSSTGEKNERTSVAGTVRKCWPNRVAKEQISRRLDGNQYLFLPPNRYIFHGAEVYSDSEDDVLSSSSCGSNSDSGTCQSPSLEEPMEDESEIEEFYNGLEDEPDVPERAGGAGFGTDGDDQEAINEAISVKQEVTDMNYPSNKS

[2] = target: T2, SIRT2 (Homo sapiens, UniProt Q8IXJ6)
T2 sequence (Q8IXJ6 2-389): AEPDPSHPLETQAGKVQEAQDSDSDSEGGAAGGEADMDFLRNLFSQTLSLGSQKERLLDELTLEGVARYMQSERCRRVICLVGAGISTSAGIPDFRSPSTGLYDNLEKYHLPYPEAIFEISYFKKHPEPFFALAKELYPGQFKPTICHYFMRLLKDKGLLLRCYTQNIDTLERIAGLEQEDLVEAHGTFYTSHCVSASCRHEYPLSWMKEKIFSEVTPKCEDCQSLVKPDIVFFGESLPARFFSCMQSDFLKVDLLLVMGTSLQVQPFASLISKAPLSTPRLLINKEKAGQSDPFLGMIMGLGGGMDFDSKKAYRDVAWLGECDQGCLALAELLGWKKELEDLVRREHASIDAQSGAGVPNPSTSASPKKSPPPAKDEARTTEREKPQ

[3] = target: T2, SIRT2; remark: listed apart in the source
[4] = target: T1, SIRT1; remark: listed apart in the source

## CN(C)c1ccc(C=NNC(=O)/C=C/C=C/c2ccc3c(c2)OCO3)cc1 (mixture of isomers) [5d, (2E,4E)-5-(Benzo[d][1,3]dioxol-5-yl)-N′-((E/Z)-4-(dimethylamino)-benzylidene)penta-2,4-dienehydrazide]
[1]
  inhibition at 50 µM: 48 ± 3%
[2]
  inhibition at 50 µM: 70 ± 3%

## O=C(/C=C/C=C/c1ccc2c(c1)OCO2)NN=Cc1ccc(O)cc1 [5a, (2E,4E)-5-(Benzo[d][1,3]dioxol-5-yl)-N′-((E,Z)-4-hydroxybenzylidene)penta-2,4-dienehydrazide]
[3]
  inhibition at 50 µM: 72 ± 3%

## O=C(/C=C/C=C/c1ccc2c(c1)OCO2)N/N=C/c1ccc(O)cc1O [5b, (2E,4E)-5-(Benzo[d][1,3]dioxol-5-yl)-N′-((E)-2,4-dihydroxybenzylidene)penta-2,4-dienehydrazide]
[4]
  inhibition at 50 µM: 45 ± 3%
